Values after ≈ are worked out from the molar mass of the structure shown.
Columns and labels:
[1] = test system: Escherichia coli ATCC 11 775; assay: serial dilution test in microtiter system (bacteriostasis, MIC); format: cell-based; settings: ATCC11, liquid medium, 18 to 20 h at 37°C, read-out: MHK-Werte E.coli ATCC 11 755
Method: (§1) Für die Untersuchungen wurde die Methode des Reihenverdünnungstestes im Mikrotitersystem angewandt. Die Prüfung der Substanzen auf Bakteriostase erfolgte in flüssigem Medium. Es wurde die Bakteriostasewirkung bei folgenden Konzentrationen untersucht.
(§2) Es wurde ein Nährboden folgender Zusammensetzung benutzt: 10 g Pepton, 8 g Fleischextrakt-Oxoid, 3 g Natriumschlorid, 2 g sek. Natriumphosphat werden mit dest. Wasser auf 1000 ml aufgefüllt (pH 7,2-7,4). Lediglich bei der Testung gegen Streptokokken wurde 1% Glucose hinzugefügt. Das Alter der Primärkulturen betrug etwa 20 Stunden. Die Einstellung der Keimsuspension erfolgte am Photometer (nach "Eppendorf") (Reagenzglas-Durchmesser 14 mm, Filter 546 nm) anhand der Trübung einer Bariumsulfat-Vergleichssuspension, die durch eine Bariumsulfat-Aufschwemmung erzeugt wurde, welche durch die Zugabe von 3,0 ml 1%ige Bariumchloridlösung in 97 ml 1%ige Schwefelsäure entstand. Nach der Einstellung wurden Streptococcus Aronson im Verhältnis 1:15 und die übrigen Testkeime im Verhältnis 1:1500 mit einer Kochsalzlösung weiter verdünnt.
(§3) 16 mg der jeweiligen Substanz wurden in 10 ml-Meßkolben eingewogen und mit dem Lösungsmittel bis zur Marke aufgefüllt. Die weitere Verdünnungsreihe wurde mit destilliertem Wasser oder dem jeweiligen Lösungsmittel hergestellt.
(§4) Die Vertiefungen der Mikrotiterplatten wurden mit 0,2 ml Nährmedium, 0,01 ml der entsprechenden Substanzverdünnung und mit einem Tropfen Keimsuspension (0,01 ml) beschickt und 18 bis 20 Stunden bei 37°C bebrütet. Eine Lösungsmittelkontrolle wurde stets mitgeführt.
(§5) Die Ablesung wurde makroskopisch vorgenommen, wobei die jeweilige Grenkonzentration (= niedrigste noch bakteriostatisch wirksame Konzentration) ermittelt wurde.
(§6) Als Testorganismen wurden benützt: - Staphylococcus aureus SG 511, Escherichia coli ATCC 11 775, Pseudomonas aeruginosa Hamburgensis und Walter, Serratia marcescens ATCC 13 880, Klebsiella pneumoniae ATCC 10 031 und BC 6, Proteus mirabilis Hamburgensis, Proteus rettgeri BC 7 und Enterobacter cloacae ATCC 13 047.
(§7) In der folgenden Tabelle 2 sind die ermittelten minimalen Hemmkonzentrationen (MIC) für typische Vertreter der erfindungsgemäßen Verbindungen aufgeführt, wobei sich die Ziffern auf die Penicilline der Tabelle 1 Seite 18 beziehen.

[2] = test system: Pseudomonas aeruginosa Hamburgensis; assay: as above; format: cell-based; settings: liquid medium, 18 to 20 h at 37°C, read-out: MHK-Werte Pseud. aerug. Hbg.
Method: as §1, §2, §3, §4, §5, §6, §7

[3] = test system: Klebsiella pneumoniae ATCC 10 031; assay: as above; format: cell-based; settings: ATCC10, liquid medium, 18 to 20 h at 37°C, read-out: MHK-Werte Kl. pneum. ATCC 10 031
Method: as §1, §2, §3, §4, §5, §6, §7

[4] = test system: Serratia marcescens ATCC 13 880; assay: as above; format: cell-based; settings: ATCC13, liquid medium, 18 to 20 h at 37°C, read-out: MHK-Werte Serr. marcesc. ATCC 13 880
Method: as §1, §2, §3, §4, §5, §6, §7

[5] = test system: Proteus mirabilis Hamburgensis; assay: as above; format: cell-based; settings: liquid medium, 18 to 20 h at 37°C, read-out: MHK-Werte Prot. mir. Hbg.
Method: as §1, §2, §3, §4, §5, §6, §7

[6] = test system: Pseudomonas aeruginosa Walter; assay: as above; format: cell-based; settings: liquid medium, 18 to 20 h at 37°C, read-out: MHK-Werte Pseud. aerug. Walter
Method: as §1, §2, §3, §4, §5, §6, §7

Proteus rettgeri BC 7 = assay: as above; format: cell-based; settings: Providencia rettgeri, BC7; liquid medium, 18 to 20 h at 37°C; read-out: MHK-Werte Prot. rettg. BC 7
Method: as §1, §2, §3, §4, §5, §6, §7

[7] = test system: Staphylococcus aureus SG 511; assay: as above; format: cell-based; settings: SG511, liquid medium, 18 to 20 h at 37°C, read-out: MHK-Werte Staph. aureus SG 511
Method: as §1, §2, §3, §4, §5, §6, §7

[8] = test system: Enterobacter cloacae ATCC 13 047; assay: as above; format: cell-based; settings: ATCC13, liquid medium, 18 to 20 h at 37°C, read-out: MHK-Werte Eb. cloacae 13 047
Method: as §1, §2, §3, §4, §5, §6, §7

[9] = test system: Klebsiella pneumoniae BC 6; assay: as above; format: cell-based; settings: BC6, liquid medium, 18 to 20 h at 37°C, read-out: MHK-Werte Kl. pneum. BC 6
Method: as §1, §2, §3, §4, §5, §6, §7

E.coli ATCC 11 775 = assay: experimental intraperitoneal infection in mice, ED50 (survival); format: in vivo, Mäuse; settings: Escherichia coli, ATCC 11 / ATCC 1175, sc, 168 h; female NMRI mice, i.p. infection, s.c. application, treated once, 7 days observation
Method: (§8) Eine Reihe der erfindungsgemäßen Verbindungen wurde in vivo bei experimentellen Infektionen an Mäusen untersucht. Man verwendete als pathogene Bakterien E.coli ATCC 11 775 und Pseudomonas aeruginosa Walter. Es wurde eine intraperitoneale Infektion mit 0,2 ml einer 5%igen Mucinsuspension der Bakterien gesetzt. Dies entspricht etwa 2x10^6 Keime E.coli bzw. 8x10^5 Keime Pseudomonas/Maus. Weibliche Mäuse vom Stamm NMRI wurden in Gruppen von jeweils 10 Tieren aufgeteilt, zwei Gruppen blieben unbehandelt, die restlichen Gruppen wurden mit verschiedenen Dosen der jeweiligen erfindungsgemäßen Penicilline zur Bestimmung der ED50 (Dosis, bei der 50 % der Tiere überleben) behandelt. Bei der E.coli-Infektion wurde einmal therapiert. Bei der Pseudomonas-Infektion wurde dreimal behandelt.
(§9) Der Beobachtungszeitraum betrug in beiden Fällen 7 Tage. Die Ergebnisse dieser Teste mit repräsentativen Vertretern der erfindungsgemäßen Penicilline sind in der Tabelle 3 dargestellt.

[10] = test system: Pseudomonas aeruginosa Walter; assay: as above; format: in vivo, Mäuse; settings: sc, 168 h, female NMRI mice, i.p. infection, s.c. application, treated three times, 7 days observation, read-out: ED50 Pseud. aerug. Walter
Method: as §8, §9

Compound | MIC [1] [µg/mL] | MIC [2] [µg/mL] | MIC [3] [µg/mL] | MIC [4] [µg/mL] | MIC [5] [µg/mL] | MIC [6] [µg/mL] | MIC (Proteus rettgeri BC 7) [µg/mL] | MIC [7] [µg/mL] | MIC [8] [µg/mL] | MIC [9] [µg/mL] | ED50 (E.coli ATCC 11 775) [mg/kg] | ED50 [10] [mg/kg]
CC1(C)SC2C(NC(=O)C(NC(=O)Nc3cnc(Nc4ccc(S(N)(=O)=O)c(O)c4)nc3O)c3ccc(O)cc3)C(=O)N2C1C(=O)O (stereo not shown) [Verbindung 44] | 0.12 (≈ 0.174 µM) | 0.5 (≈ 0.726 µM) | 1 (≈ 1.45 µM) | 0.12 (≈ 0.174 µM) | 0.03 (≈ 0.0436 µM) | 0.5 (≈ 0.726 µM) | 0.25 (≈ 0.363 µM) | 0.25 (≈ 0.363 µM) | 0.5 (≈ 0.726 µM) | 1 (≈ 1.45 µM) | 2.1 | 3.6
CC1(C)SC2C(NC(=O)C(NC(=O)Nc3cnc(Nc4ccc(NC(N)=O)cc4)nc3O)c3ccc(O)cc3)C(=O)N2C1C(=O)O (stereo not shown) [Verbindung 43] | 0.5 (≈ 0.767 µM) | 1 (≈ 1.53 µM) | 8 (≈ 12.3 µM) | 0.5 (≈ 0.767 µM) | 0.06 (≈ 0.0921 µM) | 1 (≈ 1.53 µM) | 1 (≈ 1.53 µM) | 0.5 (≈ 0.767 µM) | 4 (≈ 6.14 µM) | 8 (≈ 12.3 µM) | 5.6 | 
CC1(C)SC2C(NC(=O)C(NC(=O)Nc3cnc(Nc4ccc(S(N)(=O)=O)c(O)c4)nc3O)c3ccccc3)C(=O)N2C1C(=O)O (stereo not shown) [Verbindung 45] | 0.12 (≈ 0.178 µM) | 1 (≈ 1.49 µM) | 0.5 (≈ 0.743 µM) | 0.12 (≈ 0.178 µM) | 0.06 (≈ 0.0892 µM) | 0.5 (≈ 0.743 µM) | 0.25 (≈ 0.372 µM) | 0.12 (≈ 0.178 µM) | 1 (≈ 1.49 µM) | 1 (≈ 1.49 µM) | 3.2 | 5.2
CN(C)S(=O)(=O)c1ccc(Nc2ncc(NC(=O)N[C@@H](C(=O)N[C@@H]3C(=O)N4[C@@H]3SC(C)(C)[C@@H]4C(=O)O)c3ccccc3)c(O)n2)cc1 [Verbindung 14] |  |  |  |  |  |  |  |  |  |  | 4.2 | 8.5
C[S+]([O-])c1ccc(CNc2ncc(NC(=O)NC(C(=O)N[C@@H]3C(=O)N4[C@@H]3SC(C)(C)[C@@H]4C(=O)O)c3ccc(O)cc3)c(O)n2)cc1 (stereo partly shown) [Verbindung 62] | 0.5 (≈ 0.747 µM) | 2 (≈ 2.99 µM) | 4 (≈ 5.97 µM) | 1 (≈ 1.49 µM) | 0.12 (≈ 0.179 µM) | 2 (≈ 2.99 µM) | 1 (≈ 1.49 µM) | 0.5 (≈ 0.747 µM) | 4 (≈ 5.97 µM) | 8 (≈ 11.9 µM) | 5.9 | 18.3
CC1(C)SC2C(NC(=O)C(NC(=O)Nc3cnc(Nc4ccc(C(N)=O)cc4)nc3O)c3ccccc3)C(=O)N2C1C(=O)O (stereo not shown) [Verbindung 34] | 0.25 (≈ 0.403 µM) | 1 (≈ 1.61 µM) | 4 (≈ 6.44 µM) | 0.25 (≈ 0.403 µM) | 0.06 (≈ 0.0967 µM) | 2 (≈ 3.22 µM) | 0.25 (≈ 0.403 µM) | 0.25 (≈ 0.403 µM) | 2 (≈ 3.22 µM) | 2 (≈ 3.22 µM) | 3.2 | 
CC1(C)SC2C(NC(=O)C(NC(=O)Nc3cnc(Nc4ccc([N+](=O)[O-])cc4)nc3O)c3ccccc3)C(=O)N2C1C(=O)O (stereo not shown) [Verbindung 41] | 0.12 (≈ 0.193 µM) | 2 (≈ 3.21 µM) | 0.5 (≈ 0.803 µM) | 0.12 (≈ 0.193 µM) | 0.06 (≈ 0.0964 µM) | 2 (≈ 3.21 µM) | 0.25 (≈ 0.402 µM) | 0.25 (≈ 0.402 µM) | 0.5 (≈ 0.803 µM) | 0.5 (≈ 0.803 µM) | 8.3 | 
CC1(C)S[C@@H]2[C@H](NC(=O)[C@H](NC(=O)N3CCN(S(C)(=O)=O)C3=O)c3ccccc3)C(=O)N2[C@H]1C(=O)O [B, Mezlocillin, reference compound] | 2 (≈ 3.71 µM) | 16 (≈ 29.7 µM) | 4 (≈ 7.41 µM) | 0.5 (≈ 0.927 µM) | 0.25 (≈ 0.463 µM) | 32 (≈ 59.3 µM) | 1 (≈ 1.85 µM) | 0.25 (≈ 0.463 µM) | 4 (≈ 7.41 µM) | 4 (≈ 7.41 µM) | > 100 | 

From patent EP0051773A1, “Penicillins, their salts, process for their preparation and pharmaceutical compositions containing them” (Dr. Karl Thomae GmbH, priority 1980, dated 1982)
